Source: patent US5200409A, “Composition and use of substituted 1,3-dithiolo-and 1,4-dithiinoquinoxalines as an antimicrobial” (The Dow Chemical Company, priority 1992, dated 1993)
Values after ≈ are worked out from the molar mass of the structure shown. Like-named read-outs stand apart in the source and are kept apart here.

How the values were obtained:
Bacillus subtilis (Bs) = assay: Minimum inhibitory concentration (MIC) in nutrient agar; format: cell-based, Bacillus subtilis ATCC 8473
Method: (§1) The minimum inhibitory concentration (MIC) for the compounds listed in Table I is determined for 9 bacteria, using nutrient agar: and 7 yeast and fungi, using malt yeast agar. A one percent solution of the test compound is prepared in a mixture of acetone and water. Nutrient agar is prepared at pH 6.8, representing a neutral medium, and at pH 8.2, representing an alkaline medium. The nutrient agars are prepared by adding 23 g of nutrient agar to one-liter of deionized water. In addition, the alkaline medium is prepared by adjusting a 0.04M solution of N-[tris-(hydroxymethyl)methyl]-glycine buffered deionized water with concentrated sodium hydroxide to a pH of […]. Malt yeast agar is prepared by adding 3 g yeast extract and 45 g malt agar per liter of deionized water. The specific agar is dispensed in 30 ml aliquots into 25×200 mm test tubes, capped and autoclaved for 15 minutes at 115° C. The test tubes containing the agar are cooled in a water bath until the temperature of the agar is 48° C. Then, an appropriate amount of the one percent solution of the test compound is added (except in the controls where no compound is added) to the respective test tubes so that the final concentrations are 500, 250, 100, 50, 25, 10, 5, 2.5, 1.0 and zero parts per million of the test compound in the agar, thus having a known concentration of test compound dispersed therein. The contents of the test tubes are then transferred to respective petri plates. After drying for 24 hours, the petri plates containing nutrient agar are inoculated with bacteria and those containing malt yeast agar are inoculated with yeast and fungi.
(§2) The inoculation with bacteria is accomplished by using the following procedure. Twenty-four hour-cultures of each of the bacteria are prepared by incubating the respective bacteria in tubes containing nutrient broth for 24 hours at 30° C. in a shaker. Dilutions of each of the 24 hour-cultures are made so that nine separate suspensions (one for each of the nine test bacteria) are made, each containing 10^8 colony forming units (CFU) per ml of suspension of a particular bacteria. Aliquots of 0.3 ml of each of the bacterial suspensions are used to fill the individual wells of Steer's Replicator. For each microbial suspension, 0.3 ml was used to fill three wells (i.e., three wells of 0.3 ml each) so that for the nine different bacteria, 27 wells are filled. The Steer's Replicator is then used to inoculate both the neutral and alkaline pH nutrient agar petri plates.
(§3) The inoculated petri plates are incubated at 30° C. for 48 hours and then read to determine if the test compound which is incorporated into the agar prevented growth of the respective bacteria.
(§4) Table II lists the bacteria, yeast and fungi used in the MIC test described above along with their respective American Type Culture Collection (ATCC) identification numbers.

[1] = tested on: Enterobacter aerogenes (Ea); assay: as above; format: cell-based, Enterobacter aerogenes ATCC 13048; details: Klebsiella aerogenes
Method: as §1, §2, §3, §4

Escherichia coli (Ec) = assay: as above; format: cell-based, Escherichia coli ATCC 11229
Method: as §1, §2, §3, §4

[2] = tested on: Klebsiella pneumoniae (Kp); assay: as above; format: cell-based, Klebsiella pneumoniae ATCC 8308
Method: as §1, §2, §3, §4

Proteus vulgaris (Pv) = assay: as above; format: cell-based, Proteus vulgaris ATCC 881
Method: as §1, §2, §3, §4

[3] = tested on: Pseudomonas aeruginosa (PRD-10); assay: as above; format: cell-based, Pseudomonas aeruginosa ATCC 15442
Method: as §1, §2, §3, §4

[4] = tested on: Pseudomonas aeruginosa (Pa); assay: as above; format: cell-based, Pseudomonas aeruginosa ATCC 10145; details: 48 hours
Method: as §1, §2, §3, §4

[5] = tested on: Salmonella choleraesuis (Sc); assay: as above; format: cell-based, Salmonella choleraesuis ATCC 10708; details: Salmonella enterica
Method: as §1, §2, §3, §4

[6] = tested on: Staphylococcus aureus (Sa); assay: as above; format: cell-based, Staphylococcus aureus ATCC 6538
Method: as §1, §2, §3, §4

Aspergillus niger (An) = assay: Minimum inhibitory concentration (MIC) in malt yeast agar; format: cell-based, Aspergillus niger ATCC 16404; details: malt yeast agar; 30° C.; 72 hours for fungi; read-out: Minimum Inhibitory Concentration, An
Method: as §1
(§5) The inoculation with the yeast and fungi is accomplished as follows. Cultures of yeast and fungi are incubated for seven days on malt yeast agar at 30° C. These cultures are used to prepare suspensions by the following procedure. A suspension of each organism is prepared by adding 10 ml of sterile saline and 10 microliters of octylphenoxy polyethoxy ethanol to the agar slant of yeast or fungi. The sterile saline/octylphenoxy polyethoxy ethanol solution is then agitated with a sterile swab to suspend the microorganism grown on the slant. Each resulting suspension is diluted into sterile saline (1 part suspension: 9 parts sterile saline). Aliquots of these dilutions are placed in individual wells of Steer's Replicator and petri plates inoculated as previously described. The petri plates are incubated at 30° C. and read after 48 hours for yeast and 72 hours for fungi.
as §4

Candida albicans (Ca) = assay: as above; format: cell-based, Candida albicans ATCC 10231; details: malt yeast agar; 30° C.; 48 hours for yeast; read-out: Minimum Inhibitory Concentration, Ca
Method: as §1, §5, §4

[7] = tested on: Penicillium chrysogenum (Pc); assay: as above; format: cell-based, Penicillium chrysogenum ATCC 9480; details: malt yeast agar; 30° C.; 72 hours for fungi; read-out: Minimum Inhibitory Concentration, Pc
Method: as §1, §5, §4

[8] = tested on: Saccharomyces cerevisiae (Sc); assay: as above; format: cell-based, Saccharomyces cerevisiae ATCC 4105; details: malt yeast agar, 30° C., 48 hours for yeast, read-out: Minimum Inhibitory Concentration, Sc
Method: as §1, §5, §4

Trichoderma viride (Tv) = assay: as above; format: cell-based, Trichoderma viride ATCC 8678; details: malt yeast agar; 30° C.; 72 hours for fungi; read-out: Minimum Inhibitory Concentration, Tv
Method: as §1, §5, §4

[9] = tested on: Aureobasidium pullulan (Ap); assay: as above; format: cell-based, Aureobasidium pullulan ATCC 16622; details: malt yeast agar; 30° C.; 48 hours for yeast and 72 hours for fungi; read-out: Minimum Inhibitory Concentration, Ap
Method: as §1, §5, §4

Fusarium oxysporum (Fo) = assay: as above; format: cell-based, Fusarium oxysporum ATCC 48112; details: malt yeast agar; 30° C.; 72 hours for fungi; read-out: Minimum Inhibitory Concentration, Fo
Method: as §1, §5, §4

[10] = 48 h, pH 8.2, read-out: Minimum Inhibitory Concentration, Ec
[11] = pH 6.8, nutrient agar, 30° C., 48 hours, read-out: Minimum Inhibitory Concentration, Kp

Work on N#CC(C#N)=C1Sc2nc3ccccc3nc2S1 [Compound P, 1,3-dithiolo-(4,5-b)-quinoxaline-2-ylidene-propanedinitrile] yielded an MIC (Bacillus subtilis (Bs); 48 h, pH 6.8, read-out: Minimum Inhibitory Concentration, Bs) greater than 500 µg/mL, an MIC (Bacillus subtilis (Bs); 48 h, pH 8.2, read-out: Minimum Inhibitory Concentration, Bs) greater than 500 µg/mL and an MIC ([1]; 48 h, pH 6.8, read-out: Minimum Inhibitory Concentration, Ea) greater than 500 µg/mL. For the same molecule, the MIC ([1]; 48 h, pH 8.2, read-out: Minimum Inhibitory Concentration, Ea) was greater than 500 µg/mL, the MIC (Escherichia coli (Ec); 48 h, pH 6.8, read-out: Minimum Inhibitory Concentration, Ec) was greater than 500 µg/mL and the MIC (Escherichia coli (Ec); [10]) was greater than 500 µg/mL. It also gave an MIC ([2]; 48 h, pH 8.2, read-out: Minimum Inhibitory Concentration, Kp) greater than 500 µg/mL, an MIC [2, 11] greater than 500 µg/mL and an MIC (Proteus vulgaris (Pv); 48 h, pH 6.8, read-out: Minimum Inhibitory Concentration, Pv) greater than 500 µg/mL. It also gave an MIC (Proteus vulgaris (Pv); 48 h, pH 8.2, read-out: Minimum Inhibitory Concentration, Pv) greater than 500 µg/mL, an MIC ([3]; 48 h, pH 6.8, read-out: Minimum Inhibitory Concentration, PRD) greater than 500 µg/mL and an MIC ([3]; 48 h, pH 8.2, read-out: Minimum Inhibitory Concentration, PRD) greater than 500 µg/mL. For the same molecule, the MIC ([4]; pH 6.8, 30° C.) was greater than 500 µg/mL, the MIC ([4]; pH 8.2, 30° C.) was greater than 500 µg/mL and the MIC ([5]; 48 h, pH 6.8, read-out: Minimum Inhibitory Concentration, Sc) was greater than 500 µg/mL. It also gave an MIC ([5]; 48 h, pH 8.2, read-out: Minimum Inhibitory Concentration, Sc) greater than 500 µg/mL, an MIC ([6]; 48 h, pH 8.2, read-out: Minimum Inhibitory Concentration, Sa) greater than 500 µg/mL and an MIC ([6]; pH 6.8, nutrient agar, 30° C., 48 hours, read-out: Minimum Inhibitory Concentration, Sa) greater than 500 µg/mL. The MIC (Aspergillus niger (An)) was 500 µg/mL (≈ 1860 µM), the MIC (Candida albicans (Ca)) was greater than 500 µg/mL and the MIC [7] was 500 µg/mL (≈ 1860 µM). The MIC [8] was greater than 500 µg/mL, the MIC (Trichoderma viride (Tv)) was greater than 500 µg/mL and the MIC [9] was 500 µg/mL (≈ 1860 µM). It also gave an MIC (Fusarium oxysporum (Fo)) greater than 500 µg/mL.
Work on Cc1cc2nc3c(nc2cc1[N+](=O)[O-])SC(C#N)=C(C#N)S3 [F, 7-nitro-8-methyl-1,4-dithiino-(2,3-b)-quinoxaline-2,3-dicarbonitrile] yielded an MIC (Bacillus subtilis (Bs); pH 6.8, nutrient agar, 30° C., 48 hours, read-out: Minimum Inhibitory Concentration, Bs) of less than 10 µg/mL, an MIC (Bacillus subtilis (Bs); pH 8.2, nutrient agar, 30° C., 48 hours, read-out: Minimum Inhibitory Concentration, Bs) of 50 µg/mL (≈ 153 µM) and an MIC ([1]; pH 6.8, nutrient agar, 30° C., 48 hours, read-out: Minimum Inhibitory Concentration, Ea) of 500 µg/mL (≈ 1530 µM). For the same molecule, the MIC ([1]; pH 8.2, nutrient agar, 30° C., 48 hours, read-out: Minimum Inhibitory Concentration, Ea) was greater than 500 µg/mL, the MIC (Escherichia coli (Ec); [10]) was greater than 500 µg/mL and the MIC (Escherichia coli (Ec); pH 6.8, nutrient agar, 30° C., 48 hours, read-out: Minimum Inhibitory Concentration, Ec) was 250 µg/mL (≈ 764 µM). For the same molecule, the MIC [2, 11] was 100 µg/mL (≈ 305 µM), the MIC ([2]; pH 8.2, nutrient agar, 30° C., 48 hours, read-out: Minimum Inhibitory Concentration, Kp) was greater than 500 µg/mL and the MIC (Proteus vulgaris (Pv); pH 6.8, nutrient agar, 30° C., 48 hours, read-out: Minimum Inhibitory Concentration, Pv) was 50 µg/mL (≈ 153 µM). For the same molecule, the MIC (Proteus vulgaris (Pv); pH 8.2, nutrient agar, 30° C., 48 hours, read-out: Minimum Inhibitory Concentration, Pv) was greater than 500 µg/mL, the MIC ([3]; pH 6.8, nutrient agar, 30° C., 48 hours, read-out: Minimum Inhibitory Concentration, PRD) was greater than 500 µg/mL and the MIC ([3]; pH 8.2, nutrient agar, 30° C., 48 hours, read-out: Minimum Inhibitory Concentration, PRD) was greater than 500 µg/mL. It also gave an MIC ([4]; pH 6.8, 30° C.) of 500 µg/mL (≈ 1530 µM), an MIC ([4]; pH 8.2, 30° C.) greater than 500 µg/mL and an MIC ([5]; pH 6.8, nutrient agar, 30° C., 48 hours, read-out: Minimum Inhibitory Concentration, Sc) of 250 µg/mL (≈ 764 µM). The MIC ([5]; pH 8.2, nutrient agar, 30° C., 48 hours, read-out: Minimum Inhibitory Concentration, Sc) was greater than 500 µg/mL, the MIC ([6]; 48 h, pH 6.8, read-out: Minimum Inhibitory Concentration, Sa) was less than 10 µg/mL and the MIC ([6]; pH 8.2, nutrient agar, 30° C., 48 hours, read-out: Minimum Inhibitory Concentration, Sa) was 50 µg/mL (≈ 153 µM). It also gave an MIC (Aspergillus niger (An)) of less than 10 µg/mL, an MIC (Candida albicans (Ca)) of less than 10 µg/mL and an MIC [7] of less than 10 µg/mL. The MIC [8] was less than 10 µg/mL, the MIC (Trichoderma viride (Tv)) was 25 µg/mL (≈ 76.4 µM) and the MIC [9] was less than 10 µg/mL. The MIC (Fusarium oxysporum (Fo)) was less than 10 µg/mL.
